Where two headings read alike, the source gives them in different places.
Assays:
[1] = tested on: STZ-diabetic rats; type: in vivo, rat; conditions: rat, in vivo
Source text: The animal model corresponds to that used for Example 4, but using a prevention protocol. As in Example 4, the outcome measure, determining the effect of the treatment on the prevention of mechanical allodynia, was the PWT test, using von Frey filaments. The measurements were taken at day −3, before treatment or induction of neuropathic pain associated with DPN, and again at the end of the study period (day 28).
The rats were randomised into treatment groups as follows, all having an average body weight of about 225 g. • 1. Group 1: naïve rats (n=6) • 2. Group 2: STZ only (n=8) • 3. Group 3: STZ plus vehicle (n=8) • 4. […] Group 5: STZ plus sulindac 0.7% (n=8) • 6. Group 6: STZ plus lidocaine cream 5% (n=8)
Each treatment group was subjected to a PWT assessment at day −3 in order to determine the baseline of mechanical allodynia.
For those rats in the lidocaine treatment group, lidocaine cream was applied only once to both hind paws of the rats 30 min before the final PWT measurement on day 28. On day 0, neuropathic pain associated with DPN was induced with the administration of STZ, and the blood glucose was checked on day 3.

[2] = tested on: mice with oxaliplatin-induced neuropathic pain; assay: von Frey mechanical allodynia, oxaliplatin-induced pain, topical PS; conditions: mouse, in vivo
Source text: (§1) Paw withdrawn, licking or shaking were considered positive responses.

[3] = type: in vivo, mouse; conditions: mouse, in vivo
Procedure: At 0.5, 1, 3, 5, 12, 18, and 24 h, mice (n=4-5 mice/time point) were euthanized with CO2 inhalation. Blood was drawn immediately after death. Tissues, including paw skin, paw muscle, leg muscle, the sciatic nerve and lumbar DRG bilaterally were dissected quickly, immediately frozen in liquid nitrogen and stored at −80° C. until analyzed.

[4] = tested on: mice with vincristine-induced neuropathic pain; assay: von Frey mechanical allodynia, vincristine-induced pain, topical PS; conditions: mouse, in vivo
Source text: as §1

[5] = target: COX-2 (Homo sapiens, UniProt P35354); conditions: cited from earlier work
Chain of COX-2 (P35354 18-604): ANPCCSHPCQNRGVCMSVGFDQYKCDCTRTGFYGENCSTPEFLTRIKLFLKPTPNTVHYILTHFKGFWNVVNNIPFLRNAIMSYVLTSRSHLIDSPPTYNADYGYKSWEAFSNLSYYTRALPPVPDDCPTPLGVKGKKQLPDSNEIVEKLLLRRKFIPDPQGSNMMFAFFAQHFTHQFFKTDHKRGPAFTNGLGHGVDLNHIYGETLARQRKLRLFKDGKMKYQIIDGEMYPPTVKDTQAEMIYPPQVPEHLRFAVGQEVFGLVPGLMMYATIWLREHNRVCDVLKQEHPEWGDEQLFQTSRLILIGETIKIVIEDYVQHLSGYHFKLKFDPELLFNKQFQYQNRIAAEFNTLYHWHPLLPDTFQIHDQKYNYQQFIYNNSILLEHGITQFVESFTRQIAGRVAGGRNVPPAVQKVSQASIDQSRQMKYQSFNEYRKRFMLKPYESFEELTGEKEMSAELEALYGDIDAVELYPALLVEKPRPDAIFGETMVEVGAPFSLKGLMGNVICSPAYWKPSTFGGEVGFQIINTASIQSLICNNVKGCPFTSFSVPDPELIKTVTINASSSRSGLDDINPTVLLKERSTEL

[6] = in vivo; conditions: rat
Procedure: Approximately 800 μL of blood were collected through cardiac puncture and immediately centrifuged.
Tissue samples were harvested using separate dissection instruments for each tissue sample to avoid cross contamination, and snap frozen. The levels of the test drug were determined by HPLC.
As previously described (Wen et al, 2019), each plasma sample was mixed with double volume of acetonitrile and centrifuged at 13,200 rpm for 15 min. Tissue samples were weighed, ddH2O (100-300 μL, depending on tissue weight) was added, and they were homogenized. Following addition of acetonitrile (twice the volume of the homogenate), the mixture was sonicated for 10 min, centrifuged at 13,200 rpm for 15 min, and analyzed by HPLC, as reported (Wen et al, 2019).
It was performed following a previously reported method (Xie et al, 2012). Briefly, the HPLC system consisted of a Waters Alliance 2695 Separations Module (Milford, MA, USA) equipped with a Waters 2998 photodiode array detector (328 nm) and a Thermo Hypersil BDS C18 column (150×4.6 mm, particle size 3 μm). The mobile phase consisted of a gradient between solvent A (formic acid, CH3CN, H2O (0.1:4.9:95 v/v/v)) and solvent B (CH3CN) at a flow rate of 1 mL·min−1 at 30° C. We applied gradient elution from 30 to 100% solvent B from 0-6 min, and it was maintained at 100% solvent B until 8 min.
The methods are identical to those used in Example 27.
A single dose of PN or PSA was given by oral gavage to groups of three Sprague-Dawley rats, which were euthanized and dissected according to the early example. The oral gavage solution of phosphonaproxen was prepared by dissolving in 10% DMSO and then suspending it in corn oil.

[7] = tested on: mice with paclitaxel-induced central sensitization; assay: cold allodynia (acetone test), paclitaxel-induced central sensitization; conditions: mouse, in vivo
Procedure: To determine the outcome of treatment, assessment of mechanical allodynia was performed. […] Both methods of assessing allodynia are described in Toma W, et al. Neuropharmacology 2017; 117:305-15. Mechanical and cold allodynia are determined at least one day apart in the same animal.
The acetone test was used. Briefly, acetone was applied onto the plantar surface of each hind paw. The time each mouse spent licking, lifting, and/or shaking the hind paw recorded over 60 seconds was the score for cold allodynia.

[8] = drug levels in proximal and distal half of the sciatic nerve after topical PS; type: in vivo, mouse; conditions: mouse, in vivo
Procedure: In a separate experiment we studied 8 mice with paclitaxel-induced PN treated with PS 8% ointment 3×/d for 2 wks. Mice were euthanized as above 30 minutes after the last dose of PS. From these mice we harvested both sciatic nerves dividing each into proximal and distal halves, and combined the corresponding halves of every two animals for assay of drug levels.

[9] = tested on: corneal neuropathic pain; assay: preliminary in vivo evidence, PS to the ocular surface, corneal neuropathic pain
[10] = tested on: mice with NTG-induced chronic migraine; assay: von Frey PWT, NTG-induced chronic migraine model; type: in vivo, mouse; conditions: mouse, in vivo
Source text: The NTG-induced chronic migraine model was used as described previously.

[11] = target: COX-1 (Homo sapiens, UniProt P23219); conditions: cited from earlier work
Chain of COX-1 (P23219 24-599): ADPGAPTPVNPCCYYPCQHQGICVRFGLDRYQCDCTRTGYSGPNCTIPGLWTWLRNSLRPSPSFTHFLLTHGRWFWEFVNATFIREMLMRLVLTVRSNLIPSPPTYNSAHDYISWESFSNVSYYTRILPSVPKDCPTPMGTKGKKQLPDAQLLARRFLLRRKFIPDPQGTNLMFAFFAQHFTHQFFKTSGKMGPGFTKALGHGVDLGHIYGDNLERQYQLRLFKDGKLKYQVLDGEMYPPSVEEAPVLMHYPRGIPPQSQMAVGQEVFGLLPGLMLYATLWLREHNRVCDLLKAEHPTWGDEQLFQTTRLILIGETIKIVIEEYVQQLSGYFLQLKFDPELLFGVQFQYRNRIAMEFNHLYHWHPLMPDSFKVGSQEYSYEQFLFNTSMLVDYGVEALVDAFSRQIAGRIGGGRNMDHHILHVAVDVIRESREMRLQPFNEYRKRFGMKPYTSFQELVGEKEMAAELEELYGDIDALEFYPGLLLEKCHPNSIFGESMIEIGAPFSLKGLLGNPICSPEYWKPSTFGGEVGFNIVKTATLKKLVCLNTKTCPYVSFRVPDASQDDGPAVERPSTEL

[12] = tested on: mice; conditions: mouse, in vivo
[13] = tested on: mice given paclitaxel (CIPN prevention); assay: von Frey PWT, prevention of paclitaxel-induced CIPN pain, topical PS; conditions: mouse, in vivo
Procedure: In order to establish CIPN, paclitaxel is administered at 10 mg/kg intraperitoneally into C57/BL mice. […] This dosing regimen of paclitaxel produces pain associated with CIPN with time courses that are similar to those of pain after paclitaxel administration in cancer patients.
The first doses were administered 2 days prior to the first administration of paclitaxel.

[14] = tested on: BALB/c mice infected with HSV-1 KOS strain (PHN); type: in vivo, mouse; conditions: mouse, in vivo
Procedure: PHN was induced in mice by infecting them with the HSV-1 KOS strain virus and following established protocols (Ou et al, Front Immunol, 14, 1026269, 2023; Takasaki et al, Anesthesiology, 96 (5), 1168-74, 2002).
; Reckitt Benckiser). Three days later, HSV-1 (10^6 PFUs in 20 μl PBS) was inoculated on the shin of the right hind paw (5×5 mm) after scarification with sandpaper. The virus was applied directly to the scarified area. The contralateral hind paw was without inoculation. Mock infection was performed using the same virus inactivated by heating at 60° C. for 1 h.
In a second experiment, the effect of the parent compound, sulindac, was tested in the same mouse model. Five days post-inoculation, sulindac (as a 5% gel), or vehicle control were administered topically onto both hind paws of mice three times a day for three days.
PHN was induced in mice by infecting them with the HSV-1 KOS strain virus in line with the previous Examples.
Five days post-inoculation, NO-sulindac (Formula XLIV) (as a 5% gel), or vehicle control were administered topically onto both hind paws of mice three times a day for three days.

[15] = tested on: chronic pain after LASIK; assay: PS to outer surface of eyelid in a subject after kerato-refractive surgery (LASIK); conditions: in vivo
[16] = tested on: mice with chronic constriction injury of the left sciatic nerve (PTPN); assay: von Frey PWT, chronic constriction injury (CCI) model of PTPN, topical compounds; type: in vivo, mouse; conditions: Q922, PSA 5% on left hind paw 3x/day 6 days

Structure (SMILES): CCOP(=O)(OCC)OCCCCOC(=O)CC1=C(C)/C(=C/c2ccc([S+](C)[O-])cc2)c2ccc(F)cc21 (stereo not shown) [PS, phosphosulindac]
- von Frey, gm mean ± SEM [1]: 33.1 ± 1.6 gm
- mechanical allodynia score (von Frey) after PS treatment [2]: 1.8 ± 0.09 g
- detection in the systemic circulation [3]: no PS was detected
- mechanical allodynia score (von Frey) [4]: 1.5 ± 0.09 g
- inhibition of COX-2 [5]: does not inhibit
- detection in the systemic circulation [6]: No PS was detected
- T1/2 ([6]; po, 250 mg/kg): 3.3 h
- cold allodynia score (acetone test, time licking/lifting/shaking over 60 s) [7]: 3.1±0.4
- concentration in distal half of the sciatic nerve, mean ± SEM [8]: 17.0 ± 5.1 µM
- concentration in proximal half of the sciatic nerve, mean ± SEM [8]: 0.9 ± 0.3 µM
- analgesic effect on corneal neuropathic pain [9]: striking analgesic effect
- PWT, g Mean ± SEM, Baseline [10]: 2.28 ± 0.34 g
- PWT, g Mean ± SEM, Day 11 [10]: 1.18 ± 0.10 g
- inhibition of COX-1 [11]: does not inhibit
- topical or systemic side effects [12]: no topical or systemic side effects
- PWT, gm Mean ± SEM [13]: 0.4 ± 0.01 gm
- mechanical allodynia score (von Frey) [13]: 1.2 ± 0.15 g
- PWT, g Mean ± SEM, Post-inoculation, day 5 [14]: 0.53 ± 0.06 g
- PWT, g Mean ± SEM, Post-treatment [14]: 0.93 ± 0.06 g
- PWT, g Mean ± SEM, Pre-inoculation [14]: 1.27 ± 0.19 g
- effect on chronic pain after LASIK [15]: dramatically reduced chronic pain

Structure (SMILES): CCOP(=O)(NCCCCNC(=O)c1ccccc1SC/C=C(\C)CC/C=C(\C)CCC=C(C)C)OCC [Q922]
- PWT, g Mean ± SEM [16]: 1.48 ± 0.36 g

Source: patent publication US20260102413A1, “TREATING PAIN ASSOCIATED WITH CENTRAL SENSITIZATION” (Medicon Pharmaceuticals, Inc., priority 2022, published 2026)
